Data from ChEMBL document CHEMBL1127248, “Novel water-solutle (7-(acylhydrazono)-formyl camptothecins as potent inhibitors of DNA topoisomerase I” (Bioorg Med Chem Lett, 1994).
≈ marks a conversion by molar mass, not a printed value.

Columns and labels:
[1] = Compound was tested for the production of cellular protein-linked DNA breaks when administered at a dose of 25 ug/mL; format: functional
KB [2] = experiment: Cytotoxicity in KB cancer cell line; format: functional, cell-based; settings: Homo sapiens
SW480 = experiment: Cytotoxicity in SW480 cancer cell line; format: functional, cell-based; settings: Homo sapiens
KB VCR R = experiment: Cytotoxicity in KB VCR R cancer cell line; format: functional, cell-based; settings: Homo sapiens
KB [3] = experiment: Cytotoxicity in KB VP-16 R cancer cell line; format: functional, cell-based; settings: Homo sapiens
MCF7 = experiment: Cytotoxicity in MCF-7 cancer cell line; format: functional, cell-based; settings: Homo sapiens
[4] = target: T1, DNA topoisomerase 1 (Homo sapiens) (UniProt P11387); experiment: Compound was tested for the inhibition of Topoisomerase I when administered at a dose of 25 ug/mL
T1 sequence (whole entry): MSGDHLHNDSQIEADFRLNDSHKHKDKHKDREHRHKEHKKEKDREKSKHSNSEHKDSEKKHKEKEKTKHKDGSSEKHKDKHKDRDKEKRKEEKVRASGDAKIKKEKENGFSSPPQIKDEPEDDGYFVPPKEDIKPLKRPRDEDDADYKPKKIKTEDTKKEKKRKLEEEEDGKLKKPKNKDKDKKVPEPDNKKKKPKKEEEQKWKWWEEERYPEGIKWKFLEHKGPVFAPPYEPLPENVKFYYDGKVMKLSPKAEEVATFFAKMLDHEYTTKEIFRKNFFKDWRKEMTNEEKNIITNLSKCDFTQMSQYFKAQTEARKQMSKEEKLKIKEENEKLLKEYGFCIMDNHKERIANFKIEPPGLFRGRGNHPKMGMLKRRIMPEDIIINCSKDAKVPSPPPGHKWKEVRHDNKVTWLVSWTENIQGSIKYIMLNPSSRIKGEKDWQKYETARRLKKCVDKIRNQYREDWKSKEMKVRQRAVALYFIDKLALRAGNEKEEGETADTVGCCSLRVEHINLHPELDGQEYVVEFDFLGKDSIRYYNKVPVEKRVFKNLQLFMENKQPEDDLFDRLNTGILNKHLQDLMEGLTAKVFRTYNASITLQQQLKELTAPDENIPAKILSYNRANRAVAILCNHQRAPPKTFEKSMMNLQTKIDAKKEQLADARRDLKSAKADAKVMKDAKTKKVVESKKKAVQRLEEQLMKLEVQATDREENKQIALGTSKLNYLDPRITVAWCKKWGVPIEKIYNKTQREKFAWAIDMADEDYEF

HepG2 = experiment: Cytotoxicity in HepG2-T14 cancer cell line; format: functional, cell-based; settings: Homo sapiens

SMILES	Activity [1] [%]	IC50 (KB [2]) [µg/mL]	IC50 (SW480) [µg/mL]	IC50 (KB VCR R) [µg/mL]	IC50 (KB [3]) [µg/mL]	IC50 (MCF7) [µg/mL]	Topoisomerase I inhibition relative to reference (%) [4] [%]	IC50 (HepG2) [µg/mL]
CC[C@@]1(O)C(=O)OCc2c1cc1n(c2=O)Cc2c-1nc1ccccc1c2/C=N/NC(=O)CN.Cl	110.3	0.1	0.1	1	3	0.4	116	0.6
CC[C@@]1(O)C(=O)OCc2c1cc1n(c2=O)Cc2c-1nc1ccccc1c2/C=N/NC(=O)C(N)CC(C)C.Cl (stereo partly specified)	111.7	0.1	0.04	0.4	1	0.15	136	0.4
CC[C@@]1(O)C(=O)OCc2c1cc1n(c2=O)Cc2c-1nc1ccccc1c2/C=N/NC(=O)C(N)Cc1ccc(O)cc1.Cl (stereo partly specified)	181	0.1	0.4	1	5	5	–	1
CC[C@@]1(O)C(=O)OCc2c1cc1n(c2=O)Cc2cc3ccccc3nc2-1 [CAMPTOTHECIN]	100	0.01 (≈ 0.0287 µM)	0.01 (≈ 0.0287 µM)	0.03 (≈ 0.0861 µM)	0.04 (≈ 0.115 µM)	0.02 (≈ 0.0574 µM)	–	0.09 (≈ 0.258 µM)
CC[C@@]1(O)C(=O)OCc2c1cc1n(c2=O)Cc2c-1nc1ccccc1c2/C=N/NC(=O)C(N)CO.Cl (stereo partly specified)	79.8	0.12	1	3	5	1	145	3.5
CC[C@@]1(O)C(=O)OCc2c1cc1n(c2=O)Cc2c-1nc1ccccc1c2/C=N/NC(=O)C(N)CCSC.Cl (stereo partly specified)	111	0.1	0.8	0.2	0.5	1	–	2
CC[C@@]1(O)C(=O)OCc2c1cc1n(c2=O)Cc2c-1nc1ccccc1c2/C=N/NC(=O)C1CCCN1.Cl (stereo partly specified)	154.6	0.04	0.7	5	0.6	0.8	100	1.25
CC[C@@]1(O)C(=O)OCc2c1cc1n(c2=O)Cc2c-1nc1ccccc1c2/C=N/NC(=O)C(C)N.Cl (stereo partly specified)	93.7	0.1	0.6	3	5	1	98	2.5
